Reference: paper PMC10900215 (JACS Au, 2024)
Values joined by “and” are separate entries in the source; they are usually repeats but may differ in a detail not shown here. Identical values can stand only once.

How the values were obtained:
METTL3 = molecular target: T1, METTL3 (Homo sapiens, UniProt Q86U44); test: Cellular degradation assay (Western blot), METTL3 in MOLM-13; format: cell-based; conditions: MOLM-13, 24 h, 2 μM compound
T1 construct: METTL3–14 degradation up to 70% of the endogenous level; endogenous in cells; host or cells: MOLM-13, PC3, DU145
Description: (§1) MOLM-13, NOMO-1, THP-1, Kasumi-1, PC3, and DU145 cell lines were obtained from DSMZ-German Collection of Microorganisms and Cell Cultures GmbH. Cells were cultured in RPMI 1640 medium (11875093, Thermo Fisher Scientific) containing 10% FBS (16140071, Thermo Fisher Scientific) and 1% penicillin-streptomycin (15140122, Thermo Fisher Scientific) in 5% CO2 at 37 °C in a humidified incubator, with maintained cell densities at 0.5–1 × 10^6 cells/mL. All cell lines were tested negative for mycoplasma contamination (PCR-based assay by Microsynth, Switzerland).
(§2) METTL3 (and METTL14) protein degradation was monitored by Western blot. Cells were treated with the indicated concentration of PROTACs or DMSO control (0.1% (v/v)) for 24h, 37 °C with 5% CO2. Samples were then collected and lysed with RIPA buffer with added protease inhibitors (11697498001, Roche). After SDS-PAGE, proteins were transferred to a nitrocellulose membrane, blocked (with 5% milk, 0.5% BSA in TBST buffer), and incubated overnight with primary antibodies. The following antibodies were used: GAPDH (no. 2118, Cell Signaling, 1:4000), β-actin (ab8226, Abcam, 1:2000), METTL3 (ab195352, Abcam, 1:1000), and METTL14 (ab220031, Abcam, 1:1000). Membranes were scanned using an LI-COR Odyssey DLx imager after incubation with appropriate secondary antibodies (antimouse IgG IRDye 680RD (926–68072, LI-COR, 1:10000) and goat anti-Rabbit IgG IRDye 800CW (926–32211, LI-COR, 1:10000)). Densitometry was performed in Image Studio Lite software and analyzed in GraphPad Prism 9.

METTL14 = test: Cellular degradation assay (Western blot), METTL14 in MOLM-13; format: cell-based, human; conditions: MOLM-13, 24 h, 2 μM compound
Description: as §1, §2

[1] = molecular target: T2, ternary complex CRBN/PROTAC/METTL3–14 (Homo sapiens, UniProt Q86U44+Q96SW2); test: FRET-based ternary complex formation assay (TCFA); format: binding; conditions: for TCFA amplitude (mean ± SEM): Hook curve amplitude, fraction of the maximum of compound 16; for ECmax (nM) ± SD: PROTAC concentration at the maximum of the signal in the TCFA
T2 construct: methyltransferase domains (MTD) of METTL3 (residues 354–580); His6 (N, cleaved yes); made in house; host or cells: METTL3-MTD/METTL14-MTD: baculovirus/Sf9; CRBN-TBD: E. coli Rosetta (DE3), co-expressed with BirA
Description: For protein expression, suspension cultures of Sf9 cells in […] medium (Thermo Fisher) were infected at a density of 2 × 10^6 mL^–1. […] The complex was further purified by size exclusion chromatography using a Superdex 200 Increase 10/300 GL column (Cytiva) in 20 mM Tris-Cl, pH 8.0, and 200 mM KCl. The complex was aliquoted and flash-frozen in liquid nitrogen and stored at −80 °C until further use.
Ternary complex formation between the PROTACs, METTL3, and CRBN was quantified by a homogeneous time-resolved fluorescence (HTRF)-based enzyme assay. […] Curves of titrations with the PROTACs were plotted in GraphPad Prism 9.5.1 and fitted with a Gaussian function, if appropriate. […] CRBN^TBD-Avi(biotin) was used at a final concentration of 10 nM. […] Anti-GST Eu^3+-labeled antibody (Cisbio, 61GSTKLB) was used at a final concentration of 0.8 nM. The final reaction volume was 20 μL in 50 mM HEPES (pH 7.5), 150 mM NaCl, 0.1% BSA, 100 mM KF. […] The ratio of the emissions [drawing 1] was considered for further analysis. […] The concentrations resulting in the maximum signal (ECmax) and the amplitudes of the Hook curves were determined from the parameters of the Gaussian fit (if appropriate) or as the coordinates of the data-point with the highest TR-FRET signal.
For the ternary complex formation assay (TCFA), one of the protein partners must have a GST-tag and the other a biotin-tag.

[2] = Cell viability assay (CellTiter-Glo) on MOLM-13; format: cell-based; conditions: human, MOLM-13 cells, average of two biological replicates; for viability at 72 h, […]: 2.5 µM
Description: as §1
Cell viability was determined using a CellTiter-Glo luminescent cell viability assay (Promega) based on the detection of ATP according to the manufacturer’s instructions. 100 μL of the reagent was added to each well and incubated for 10 min at room temperature. […] Background luminescence value was obtained from wells containing the CellTiter-Glo reagent and medium without cells. The resulting data was analyzed in GraphPad Prism 9.

METTL3-14 [3] = molecular target: T3, METTL3-14 (Homo sapiens, UniProt Q86U44); test: biochemical; design: with the full-length complex, the recombinant complex construct pFastBacDual-StrepII-GFP-TEV-METTL3-His-TEV-METTL14 was expressed; StrepII (N); GFP (N); TEV site (N); made in house; host or cells: baculovirus/Sf9 insect cells; conditions: inhibition of catalytic activity of METTL3-14, binary FRET assay
Source text: For determining the half maximal inhibitory concentration (IC50) with the full-length complex, the recombinant complex construct pFastBacDual-StrepII-GFP-TEV-METTL3-His-TEV-METTL14 was expressed using the baculovirus/Sf9 insect cell expression system and purified as described previously.[21]
The inhibitory potencies of the PROTACs for METTL3 were quantified by a homogeneous time-resolved fluorescence (HTRF)-based enzyme assay as previously described.[40]
Target sequence in this assay (Q86U44 whole entry): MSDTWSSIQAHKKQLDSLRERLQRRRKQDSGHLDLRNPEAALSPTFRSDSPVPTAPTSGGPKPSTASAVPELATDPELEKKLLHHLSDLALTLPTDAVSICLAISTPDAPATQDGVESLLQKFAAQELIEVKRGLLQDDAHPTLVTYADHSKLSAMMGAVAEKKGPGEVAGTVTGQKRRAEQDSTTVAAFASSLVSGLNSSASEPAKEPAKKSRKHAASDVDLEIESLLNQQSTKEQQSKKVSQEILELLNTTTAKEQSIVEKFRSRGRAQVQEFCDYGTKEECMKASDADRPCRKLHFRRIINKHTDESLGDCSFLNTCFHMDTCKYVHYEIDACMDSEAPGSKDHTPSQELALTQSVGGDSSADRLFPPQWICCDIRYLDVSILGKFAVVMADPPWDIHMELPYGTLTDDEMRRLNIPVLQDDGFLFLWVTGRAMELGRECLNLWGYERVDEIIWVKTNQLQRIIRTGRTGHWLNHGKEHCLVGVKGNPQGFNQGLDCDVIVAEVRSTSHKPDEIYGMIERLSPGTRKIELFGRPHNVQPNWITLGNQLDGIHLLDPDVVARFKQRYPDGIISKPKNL
Target sequence in this assay (Q9HCE5 whole entry, further chain): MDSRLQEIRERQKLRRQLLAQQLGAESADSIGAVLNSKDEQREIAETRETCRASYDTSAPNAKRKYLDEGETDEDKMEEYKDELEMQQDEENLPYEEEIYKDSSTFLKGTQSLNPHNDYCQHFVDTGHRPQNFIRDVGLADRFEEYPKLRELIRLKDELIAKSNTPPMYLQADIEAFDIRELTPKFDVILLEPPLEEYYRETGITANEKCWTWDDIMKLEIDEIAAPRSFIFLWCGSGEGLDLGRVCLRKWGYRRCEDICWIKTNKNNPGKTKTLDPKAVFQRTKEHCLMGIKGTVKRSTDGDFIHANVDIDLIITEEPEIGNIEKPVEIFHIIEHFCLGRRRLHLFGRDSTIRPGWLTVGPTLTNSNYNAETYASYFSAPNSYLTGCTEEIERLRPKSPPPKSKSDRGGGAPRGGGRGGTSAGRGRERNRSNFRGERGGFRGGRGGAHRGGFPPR

METTL3-14 [4] = molecular target: T3, METTL3-14; test: Cellular degradation assay (Western blot), METTL3 and/or METTL14 (METTL3–14) in MOLM-13; format: cell-based; design: METTL3–14 degradation up to 70% of the endogenous level; endogenous in cells; host or cells: MOLM-13, KASUMI-1, THP-1, NOMO-1; conditions: MOLM-13, 2 μM, 24 h, Western blot
Description: MOLM-13, NOMO-1, THP-1, Kasumi-1, PC3, and DU145 cell lines were obtained from DSMZ-German Collection of Microorganisms and Cell Cultures GmbH. […] All cell lines were tested negative for mycoplasma contamination (PCR-based assay by Microsynth, Switzerland).
METTL3 (and METTL14) protein degradation was monitored by Western blot. Cells were treated with the indicated concentration of PROTACs or DMSO control (0.1% (v/v)) for 24h, 37 °C with 5% CO2. […] After SDS-PAGE, proteins were transferred to a nitrocellulose membrane, blocked (with 5% milk, 0.5% BSA in TBST buffer), and incubated overnight with primary antibodies. […] Densitometry was performed in Image Studio Lite software and analyzed in GraphPad Prism 9.
Target sequence in this assay (Q86U44 2-580 limits assumed): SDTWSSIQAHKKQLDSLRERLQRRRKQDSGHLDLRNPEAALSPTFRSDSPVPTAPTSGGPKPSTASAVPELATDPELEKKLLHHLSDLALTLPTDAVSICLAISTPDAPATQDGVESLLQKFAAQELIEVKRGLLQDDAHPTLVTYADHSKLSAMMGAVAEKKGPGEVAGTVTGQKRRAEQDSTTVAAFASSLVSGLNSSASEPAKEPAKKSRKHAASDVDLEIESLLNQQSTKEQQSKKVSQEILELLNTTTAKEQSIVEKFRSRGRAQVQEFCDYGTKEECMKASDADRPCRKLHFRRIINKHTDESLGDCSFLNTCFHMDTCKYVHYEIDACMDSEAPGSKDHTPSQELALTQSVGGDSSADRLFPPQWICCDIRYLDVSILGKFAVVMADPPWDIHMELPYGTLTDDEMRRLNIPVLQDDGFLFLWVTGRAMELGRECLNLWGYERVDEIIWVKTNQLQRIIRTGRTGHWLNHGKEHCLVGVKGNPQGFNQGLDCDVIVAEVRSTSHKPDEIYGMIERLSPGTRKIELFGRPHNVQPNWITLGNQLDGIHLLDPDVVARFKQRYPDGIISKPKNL
Target sequence in this assay (Q9HCE5 whole entry partner): as the sequence (Q9HCE5 whole entry, further chain) above

T2 sequence (Q86U44 354-580): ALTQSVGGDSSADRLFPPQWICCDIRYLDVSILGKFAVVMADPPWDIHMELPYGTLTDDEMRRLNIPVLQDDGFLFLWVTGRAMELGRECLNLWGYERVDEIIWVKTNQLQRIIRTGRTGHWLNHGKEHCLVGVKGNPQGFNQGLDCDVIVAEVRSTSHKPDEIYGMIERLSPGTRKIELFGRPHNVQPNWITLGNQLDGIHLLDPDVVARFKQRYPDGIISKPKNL
T2 sequence (Q9HCE5 107-395 partner limits assumed): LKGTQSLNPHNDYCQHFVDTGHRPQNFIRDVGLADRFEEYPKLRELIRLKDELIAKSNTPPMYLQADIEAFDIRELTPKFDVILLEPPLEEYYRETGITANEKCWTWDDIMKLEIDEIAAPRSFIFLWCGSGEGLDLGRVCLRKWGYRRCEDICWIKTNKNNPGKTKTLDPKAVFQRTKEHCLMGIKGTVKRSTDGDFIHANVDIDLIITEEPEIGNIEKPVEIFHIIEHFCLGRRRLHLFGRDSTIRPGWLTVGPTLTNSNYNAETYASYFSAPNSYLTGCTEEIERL
T2 sequence (Q96SW2 318-442): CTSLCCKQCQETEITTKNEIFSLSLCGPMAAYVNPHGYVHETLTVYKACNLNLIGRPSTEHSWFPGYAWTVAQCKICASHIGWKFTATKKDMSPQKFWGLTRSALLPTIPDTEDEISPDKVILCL
T1 sequence (Q86U44 2-580 limits assumed): as the sequence (Q86U44 2-580 limits assumed) above
T1 sequence (Q9HCE5 whole entry partner): as the sequence (Q9HCE5 whole entry, further chain) above

| SMILES | MOLM-13 West. blot at 24h 2 μM comp conc. Degradation (%) of METTL3 (METTL3) | MOLM-13 West. blot at 24h 2 μM comp conc. Degradation (%) of METTL14 (METTL14) | TCFA amplitude (mean ± SEM) [1] | ECmax (nM) ± SD [1] | viability at 72 h, 0.6 µM [2] | viability at 72 h, 1.25 µM [2] | viability at 72 h, […] [2] | viability at 72 h, 5 µM [2] | viability at 72 h, 10 µM [2] | IC50 (METTL3-14 [3]) | degradation of METTL3 and/or METTL14 (METTL3-14 [4]) |
| --- | --- | --- | --- | --- | --- | --- | --- | --- | --- | --- | --- |
| CC1(C)CCN(Cc2cc(F)c(N3CC(=O)NC4(CCN(c5cc(NCc6cccc(CNC(=O)CCn7cc(CNc8cccc9c8C(=O)N(C8CCC(=O)NC8=O)C9=O)nn7)c6)ncn5)CC4)C3)cc2F)CC1 (stereo not shown) [Compound 18] | 19 ± 13% | 30 ± 12% | 0.6 ± 0.1 | 80 ± 0 nM | 101% | 105% | 104% | 102% | 105% | 14 ± 3 nM | – |
| CC1(C)CCN(Cc2cc(F)c(N3CC(=O)NC4(CCN(c5cc(NCc6cccc(CNC(=O)CCCCCCCCn7cc(CNc8cccc9c8C(=O)N(C8CCC(=O)NC8=O)C9=O)nn7)c6)ncn5)CC4)C3)cc2F)CC1 (stereo not shown) [Compound 19] | 33% and 33 ± 17% | 40% and 40 ± 16% | 0.9 ± 0.1 | 920 ± 150 nM | 104% | 104% | 102% | 97.1% | 87.6% | 88 ± 21 nM | – |
| CC1(C)CCN(Cc2cc(F)c(N3CC(=O)NC4(CCN(c5cc(NCC6CCN(C(=O)CCCNc7ccc8c(c7)C(=O)N(C7CCC(=O)NC7=O)C8=O)CC6)ncn5)CC4)C3)cc2F)CC1 (stereo not shown) [Compound 23] | 50% and 50 ± 12% | 57 ± 8% | 1.0 ± 0.1 | 160 ± 80 nM | 95.3% | 93.3% | 95.2% | 87.3% | 78.2% | 33 ± 12 nM | – |
| CC1(C)CCN(Cc2cc(F)c(N3CC(=O)NC4(CCN(c5cc(NCC6CCN(C(=O)CCCCCCCNc7cccc8c7C(=O)N(C7CCC(=O)NC7=O)C8=O)CC6)ncn5)CC4)C3)cc2F)CC1 (stereo not shown) [Compound 25] | 20 ± 9% | 36 ± 7% | 1.2 ± 0.1 | 1200 ± 120 nM | 102% | 94.8% | 92.1% | 87% | 83.2% | 110 ± 10 nM | – |
| CC1(C)CCN(Cc2cc(F)c(N3CC(=O)NC4(CCN(c5cc(NCc6cn(CCCCCCCCC(=O)Nc7cccc8c7CN(C7CCC(=O)NC7=O)C8=O)nn6)ncn5)CC4)C3)cc2F)CC1 (stereo not shown) [Compound 26] | 13% and 13 ± 30% | 12 ± 5% | 0.8 ± 0.0 | 190 ± 80 nM | 97.9% | 92.6% | 91.2% | 96.6% | 97.3% | 34 ± 11 nM | – |
| CC1(C)CCN(Cc2cc(F)c(N3CC(=O)NC4(CCN(c5cc(NCc6cn(CCCCCCCCCCC(=O)Nc7cccc8c7CN(C7CCC(=O)NC7=O)C8=O)nn6)ncn5)CC4)C3)cc2F)CC1 (stereo not shown) [Compound 27] | 12% and 12 ± 43% | / (Degradation <10% or stabilization) | 0.7 ± 0.0 | 1100 ± 330 nM | 95.2% | 88.7% | 92.6% | 95.5% | 90.9% | 610 ± 230 nM | – |
| CN1C(=O)CCC(N2C(=O)c3cccc(NCCCCCC(=O)N4CCC(CNc5cc(N6CCC7(CC6)CN(c6cc(F)c(CN8CCC(C)(C)CC8)cc6F)CC(=O)N7)ncn5)CC4)c3C2=O)C1=O (stereo not shown) [me-24] | – | – | – | – | – | – | – | – | – | – | did not show any METTL3–14 degradation |
